Laboratory results: PubChem BioAssay AID687000 (Broad Institute, 2013)
Several values for one entry are separate records, joined by “and”; a condition that tells them apart may be missing. Equal entries are not always repeated. Activity calls are given as the source filed them.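 How the source made its calls: active means fitted dose curve reaches 40% lysis signal rise at or below the highest valid concentration tested for that sample; inconclusive means flat fit between 30% and 70%, or poor curve fit; inactive means signal falls, stays flat within 30%, or no crossing.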

Test system: C. neoformans lysis, adenylate kinase release luminescence, 4 h
Test: C. neoformans lysis by adenylate kinase leakage – AK release luminescence, cherry-picks, dose response (AID 687000)

Q: How did the AC40 turn out when C[C@@H]1CN([C@@H](C)CO)C(=O)Cc2cc(NC(=O)c3ccncc3)ccc2O[C@H]1CN(C)Cc1ccncc1 was run?
A: Its AC40 is > 15 µM (inactive).

Q: For C[C@H]1CN([C@@H](C)CO)C(=O)Cc2cc(N(C)C)ccc2O[C@@H]1CN(C)C(=O)Nc1ccc(C(F)(F)F)cc1, which AC40 is on record?
A: The AC40 was > 15 µM (inactive).

Q: O=C(NC(=S)Nc1ccc(Br)cc1)C1CCC1 was tested. Which AC40 did it give?
A: Its AC40 is 1.05 µM.

Q: Which AC40 does the source give for COCCNC(=O)C[C@H]1C[C@@H]2c3cc(NC(=O)C4CCC4)ccc3O[C@@H]2[C@H](CO)O1 here?
A: Its AC40 is > 15 µM (inactive).

Q: O=C(NC(=S)NCC1COc2ccccc2O1)c1ccc(Cl)cc1 (stereo not drawn) was tested. Which AC40 did it give?
A: The AC40 was 3.44 µM.

Q: Which AC40 does the source give for C[C@H](CO)N1C[C@H](C)[C@H](CN(C)Cc2ccccc2)OCCCC[C@H](C)Oc2ccc(NS(=O)(=O)c3cccs3)cc2C1=O here?
A: Its AC40 is > 15 µM (inactive).

Q: O=C(NC(=S)Nc1ccccc1N1CCOCC1)c1ccc(Br)cc1 was tested. Which AC40 did it give?
A: The AC40 was > 15 µM (inactive).

Q: Which AC40 does the source give for COC(=O)C1=C(C)N(Cc2ccc(Cl)cc2)C(=S)NC1c1ccccc1 (stereo not drawn) here?
A: Its AC40 is 2.53 µM.

Q: With CCCNC(=O)C[C@@H]1CC[C@@H]2[C@H](COc3ccc(NC(=O)CCC)cc3C(=O)N2C)O1 as the compound, how does the AC40 read?
A: The AC40 was > 15 µM (inactive).

Q: Which AC40 does the source give for COc1cc(OC)c(N(C)C(=O)c2cn(C)c(=O)c3cc(OC)c(OC)cc23)cc1Cl here?
A: Its AC40 is > 15 µM (inactive).

Q: How did the AC40 turn out when C[C@H]1CN([C@@H](C)CO)C(=O)c2cc(NC(=O)Nc3ccc(F)cc3)ccc2O[C@@H]1CN(C)S(C)(=O)=O was run?
A: The AC40 was > 15 µM (inactive).

Q: COC(=O)C1=C(C)N(Cc2ccccc2)C(=S)NC1c1cccc(OC)c1 (stereo not drawn) was tested. Which AC40 did it give?
A: Its AC40 is > 15 µM (inactive) and > 16 µM (inactive).

Q: Which AC40 does the source give for C[C@@H]1CN([C@H](C)CO)C(=O)c2cc(C3=CCCCC3)cnc2O[C@H]1CN(C)C(=O)Cc1cccnc1 here?
A: Its AC40 is > 15 µM (inactive).

Q: Cc1noc(C)c1S(=O)(=O)Nc1ccc2c(c1)CC(=O)N([C@H](C)CO)C[C@H](C)[C@@H](CN(C)S(=O)(=O)c1cn(C)cn1)O2 was tested. Which AC40 did it give?
A: Its AC40 is > 15 µM (inactive).

Q: With C[C@@H]1CN([C@H](C)CO)C(=O)Cc2cc(NC(=O)NC3CCCCC3)ccc2O[C@@H]1CN(C)Cc1ccccc1 as the compound, how does the AC40 read?
A: The AC40 was > 15 µM (inactive).

Q: Which AC40 does the source give for Cc1ccc(C(=O)NC(=S)Nc2ccccc2N2CCCC2)cc1[N+](=O)[O-] here?
A: The AC40 was > 15 µM (inactive).

Q: With CNC[C@@H]1OCCCC[C@@H](C)Oc2ccc(NS(=O)(=O)c3ccc(Cl)cc3)cc2C(=O)N([C@H](C)CO)C[C@H]1C as the compound, how does the AC40 read?
A: Its AC40 is > 15 µM (inactive).

Q: For O=C(NC(=S)Nc1ccccc1N1CCCC1)c1ccccc1[N+](=O)[O-], which AC40 is on record?
A: Its AC40 is > 15 µM (inactive).

Q: COC(=O)C1=C(C)N(Cc2ccccc2)C(=S)N[C@H]1c1cccc(F)c1 was tested. Which AC40 did it give?
A: Its AC40 is 11.7 µM.

Q: Which AC40 does the source give for Cc1cccc(C)c1NC(=O)CN(C)C(=O)C1CCCCC1 here?
A: The AC40 was > 15 µM (inactive).

Q: How did the AC40 turn out when CCC(=O)N(C)C[C@@H]1Oc2cc(C#CC(C)(C)O)ccc2S(=O)(=O)N([C@H](C)CO)C[C@H]1C was run?
A: Its AC40 is > 15 µM (inactive).

Q: Which AC40 does the source give for COc1ccc(C(=O)NC(=S)Nc2ccccc2N2CCOCC2)cc1[N+](=O)[O-] here?
A: Its AC40 is > 15 µM (inactive).

Q: For Cc1noc(C)c1S(=O)(=O)Nc1ccc2c(c1)C(=O)N([C@@H](C)CO)C[C@@H](C)[C@@H](CN(C)Cc1ccccc1)OCCCC[C@H](C)O2, which AC40 is on record?
A: Its AC40 is > 15 µM (inactive).

Q: Which AC40 does the source give for COC(=O)C1=C(C)N(Cc2ccc(Br)cc2)C(=S)NC1c1ccc(OC)cc1 (stereo not drawn) here?
A: Its AC40 is 1.93 µM and 1.57 µM.

Q: CC(C)C#Cc1ccc([C@@H]2[C@H](CO)N3CCCCN(C(=O)c4ccc5c(c4)OCO5)C[C@@H]23)cc1 was tested. Which AC40 did it give?
A: The AC40 was > 15 µM (inactive).

Q: Which AC40 does the source give for COC(=O)C1=C(C)N(Cc2ccccc2)C(=S)NC1c1cccc(Br)c1 (stereo not drawn) here?
A: Its AC40 is 3.56 µM and > 15 µM (inactive).

Q: Which AC40 does the source give for COC(=O)C1=C(C)N(CC(C)C)C(=S)NC1c1ccc(F)cc1 (stereo not drawn) here?
A: The AC40 was 3.52 µM.

Q: With C[C@@H]1CCCCO[C@@H](CN(C)C(=O)Nc2cccc3ccccc23)[C@@H](C)CN([C@H](C)CO)C(=O)c2cc(NS(=O)(=O)c3ccccc3)ccc2O1 as the compound, how does the AC40 read?
A: Its AC40 is 14.2 µM.

Q: How did the AC40 turn out when CO[C@H]1CN(C)C(=O)c2cc(NC(=O)C3CC3)ccc2OC[C@@H](C)N(Cc2cncnc2)C[C@H]1C was run?
A: Its AC40 is 12.9 µM.

Q: Which AC40 does the source give for C[C@H]1CN([C@@H](C)CO)S(=O)(=O)c2ccc(Br)cc2O[C@@H]1CN(C)C(=O)CCN1CCCCC1 here?
A: Its AC40 is > 15 µM (inactive).

Q: How did the AC40 turn out when CCc1ccc(C(=O)NC(=S)NCc2cccnc2)cc1 was run?
A: The AC40 was 8.42 µM.

Q: Which AC40 does the source give for COC(=O)C1=C(C)N(Cc2ccc(F)cc2)C(=S)NC1c1cccc(Cl)c1 (stereo not drawn) here?
A: Its AC40 is 2.41 µM and 3.17 µM.

Q: Which AC40 does the source give for COC(=O)C1=C(C)N(Cc2ccc(Cl)cc2)C(=S)NC1c1ccc(Br)cc1 (stereo not drawn) here?
A: Its AC40 is 0.781 µM.

Q: How did the AC40 turn out when CC(C)NC(=O)N[C@H]1CC[C@@H](CCNC(=O)C2CC2)O[C@H]1CO was run?
A: Its AC40 is > 15 µM (inactive).

Q: Cc1cc(C)c2nc(N3CCN(C(=O)c4cccs4)CC3)sc2c1 was tested. Which AC40 did it give?
A: Its AC40 is 2.56 µM.

Q: With Cc1ccccc1NC(=O)C(=O)NCCCN1CCCC1=O as the compound, how does the AC40 read?
A: Its AC40 is > 15 µM (inactive).

Q: With Cc1ccccc1NC(=S)NC(=O)CCc1ccccc1 as the compound, how does the AC40 read?
A: The AC40 was 4.93 µM.

Q: For C[C@@H]1CCCCO[C@H](CN(C)S(=O)(=O)c2cccs2)[C@@H](C)CN([C@@H](C)CO)C(=O)c2cc(NC(=O)CCC(F)(F)F)ccc2O1, which AC40 is on record?
A: Its AC40 is > 15 µM (inactive).

Q: With COc1cccc(NC(=S)NC(=O)Cc2ccc(Cl)cc2)c1 as the compound, how does the AC40 read?
A: The AC40 was 1.03 µM.

Q: Which AC40 does the source give for COC(=O)C1=C(C)N(Cc2ccc(Cl)cc2)C(=S)NC1c1cccc(OC)c1 (stereo not drawn) here?
A: The AC40 was 3.04 µM.

Q: For COc1ccc(CNC(=S)NCc2ccc(OC(C)C)cc2)cc1, which AC40 is on record?
A: Its AC40 is 8.39 µM.

Q: C[C@H]1CN([C@@H](C)CO)C(=O)c2cccc(NS(=O)(=O)c3ccc(Cl)cc3)c2O[C@@H]1CN(C)CC1CC1 was tested. Which AC40 did it give?
A: The AC40 was 3.75 µM.

Q: O=C(NCCc1ccccc1)[C@@H]1[C@@H](CO)[C@@H]2Cn3c(cccc3=O)[C@H]1N2C(=O)C1CCC1 was tested. Which AC40 did it give?
A: The AC40 was > 7.5 µM (inactive).

Q: With CCOC(=O)NC(=S)Nc1ccc(C(C)(C)C)cc1Br as the compound, how does the AC40 read?
A: Its AC40 is 3.16 µM.

Q: Which AC40 does the source give for O=C(CN(c1ccc(F)cc1)S(=O)(=O)c1ccccc1)N1CCOCC1 here?
A: The AC40 was > 15 µM (inactive).

Q: CCOc1ccc(CNC(=S)NCc2ccc(OCC)cc2)cc1 was tested. Which AC40 did it give?
A: Its AC40 is > 15 µM (inactive).

Q: For Fc1ccccc1NC(=S)NCCc1cccc(Cl)c1, which AC40 is on record?
A: The AC40 was 3.27 µM.

Q: COc1ccccc1NC(=S)NCc1ccc(Cl)cc1 was tested. Which AC40 did it give?
A: Its AC40 is 2.19 µM.

Q: Cc1c(C(=O)NC(=S)Nc2ccccc2N2CCCC2)cccc1[N+](=O)[O-] was tested. Which AC40 did it give?
A: The AC40 was > 15 µM (inactive).

Q: How did the AC40 turn out when S=C(NCCCc1ccccc1)Nc1ccccc1 was run?
A: Its AC40 is 2.56 µM.

Q: For C[C@H]1CN([C@@H](C)CO)C(=O)c2ccccc2-c2ccccc2CO[C@H]1CN(C)S(=O)(=O)c1cccc(C#N)c1, which AC40 is on record?
A: The AC40 was > 15 µM (inactive).

Q: For COC(=O)C1=C(C)N(CC(C)C)C(=S)NC1c1cccc(F)c1 (stereo not drawn), which AC40 is on record?
A: The AC40 was > 15 µM (inactive) and 3.43 µM.

Q: With CCCN1C[C@H](C)[C@@H](OC)CN(C)C(=O)c2cc(NC(=O)c3cccc(F)c3)ccc2OC[C@@H]1C as the compound, how does the AC40 read?
A: Its AC40 is > 15 µM (inactive).
